Holding throughout (test): NCI-60 cell line screen, 48 h
Test [1] deals with ACHN renal.
The test system of test [2] is EKVX NSCLC.
Test [3] has as its system HCT-15 colon.
The subject of test [4] is HOP-92 NSCLC.
The test system of test [5] is M14 melanoma.
Test [6] relates to MALME-3M melanoma.
Test [7] has as its system MCF7 breast.
In test [8] the test system is MDA-MB-435.
In test [9] the test system is MDA-N.
The test system of test [10] is MOLT-4 leukemia.
For test [11], the system named is NCI-H460 lung.
In test [12] the test system is NCI-H522 lung.
Test [13] relates to OVCAR-3 ovarian.
For test [14], the system named is PC-3 prostate.
Test [15] concerns SK-MEL-2 melanoma.
Test [16] concerns SK-MEL-5 melanoma.
Test [17] relates to TK-10 renal.
The test system of test [18] is UACC-62 melanoma.

The structures appear in SMILES notation.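 Results reflect a 48-hour exposure of cells in 96-well plates to compound at five concentrations. At the TGI there is no net growth.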

Take `COC(=O)C1=C(C(=O)OC)C(C(=O)c2ccc(Br)cc2)N2N=C(c3ccc(Cl)cc3)C=CC12` (stereo not given): the TGI in test [1], in test [2], in [3], in test [4], in test [5] and in [6] was greater than 100 µM in each case. The TGI in test [7], in test [8], in [9], in test [10], in [11] and in [12] was greater than 100 µM in each case. For the same compound, the TGI in test [13], in [14], in [15], in test [16], in [17] and in [18] was greater than 100 µM each time.
On to `Cc1cnc2sn(-c3ccc(Oc4ccccc4)cc3)c(=O)c2c1`, for which the TGI in test [1] was 31.6 µM; in [2], 27.7 µM; in test [3], 23.9 µM; in [5], 30.8 µM; in test [6], 9.07 µM; in test [7], 75.4 µM. For the same compound, the TGI in [8] is greater than 100 µM; in [9], 51.1 µM; in test [10], greater than 100 µM; in [11], 23.1 µM; in test [12], 25.3 µM; in [13] it was 23.3 µM. Moreover, the TGI was 29.8 µM in test [14]; greater than 100 µM in [15]; 39.6 µM in test [16]; 40.1 µM in test [17]; 30.7 µM in test [18].
With `COC(=O)C1Cc2c(OC)ccc(OC)c2CC(C(=O)OC)C1=O` (stereo not given), the TGI in test [1], in test [2], in test [3], in test [4], in test [5] and in test [6] was greater than 100 µM each time. Also, the TGI in test [7], in test [8], in [9], in [10], in test [11] and in test [12] was greater than 100 µM throughout. For the same compound, the TGI in [13], in test [14], in [16] and in test [18] was greater than 100 µM throughout.
Turning to `O=C(c1ccccc1)N1CCN(C(=S)N(C(=O)c2ccccc2)c2ccccc2)C1=S`, the TGI was found to be 7.2 µM in test [1]; 19.5 µM in test [2]; 7.76 µM in test [3]; 20 µM in test [4]; 9.51 µM in [5]; 19.1 µM in test [6]. The TGI in [7] is 10 µM; in [8], 12.2 µM; in [9], 17.1 µM; in [11], 44.7 µM; in [12] it was 6.9 µM; in test [13] it was 15.4 µM. In addition, the TGI in test [14] turned out to be 20.5 µM; in [15] it was 23.5 µM; in [16] it was 26.5 µM; in test [17], 16.6 µM; in test [18], 11.4 µM.
Regarding `CCN(CC)CC1CCCCN1CC(=O)N1c2ccccc2NC(=O)CC1C` (stereo not given), the TGI in [1], in test [2], in [3], in [4], in [5] and in [6] was greater than 100 µM each time. The TGI in test [7], in [8], in test [9], in test [10], in test [11] and in test [12] was greater than 100 µM each time. For the same compound, the TGI in [13], in test [14], in test [15], in test [16] and in test [17] was greater than 100 µM in each case.
Regarding `CC1(C)N=C(C(N)=O)c2ncn(N)c2N1`, the TGI in test [1], in test [2], in test [3], in test [4], in [5] and in [6] was greater than 100 µM in each case. Besides, the TGI in test [7], in [8], in [9], in test [11], in test [12] and in test [13] was greater than 100 µM each time. Also, the TGI in test [14], in [16], in test [17] and in test [18] was greater than 100 µM each time.
Consider `O=[N+]([O-])C1CC/C(=N/O)c2nonc21` (stereo not given), for which the TGI in test [1], in test [2], in test [3], in test [4], in test [5] and in test [6] was greater than 10 µM each time. The TGI in [7], in test [8], in [9], in [10], in test [11] and in test [13] was greater than 10 µM in each case. The TGI in test [14], in [16], in test [17] and in [18] was greater than 10 µM throughout.
Regarding `CC(O)c1cc2c(s1)C(=O)c1sccc1C2=O` (stereo not given), the TGI stood at 0.674 µM in test [2]; 0.178 µM in [3]; 2.06 µM in [4]; 0.0494 µM in test [5]; 0.0486 µM in test [6]; 1.89 µM in [7]. For the same compound, the TGI in test [8] was 0.0522 µM; in test [9] it was 0.0367 µM; in test [10], greater than 100 µM; in test [11], 0.268 µM; in [12], 0.602 µM; in test [14] it was 1.43 µM. Moreover, the TGI stood at 0.215 µM in test [15], 0.0362 µM in [16], 0.459 µM in test [17] and 0.126 µM in [18].
On to `CCCCC(=O)NS(=NC(=O)c1ccccc1)C(Cl)(Cl)Cl` (stereo not given), for which the TGI in test [1], in test [2], in test [3], in [4], in test [5] and in test [6] was greater than 100 µM each time. Further, the TGI in test [7], in test [8], in [9], in test [10], in test [11] and in test [13] was greater than 100 µM in each case. Also, the TGI in test [14], in [15], in test [16], in test [17] and in [18] was greater than 100 µM each time.
With `C[C@]12CC[C@H]3[C@@H](CC=C4C[C@@H](N5CCCC5)CC[C@@]43C)[C@@H]1C[C@H](N1CCOCC1)[C@@H]2O`, the TGI is greater than 100 µM in test [1]; greater than 100 µM in [2]; greater than 100 µM in [3]; greater than 100 µM in test [4]; greater than 10 µM in test [5]; greater than 100 µM in test [6]. The TGI is greater than 10 µM in test [7]; greater than 100 µM in test [8]; greater than 100 µM in [9]; greater than 100 µM in test [10]; greater than 100 µM in test [11]; greater than 100 µM in test [12]. The TGI in test [13], in [14], in test [16], in test [17] and in test [18] was greater than 100 µM throughout.
As for `O=C1CC2(c3ccccc3)ON=C(c3ccccc3)N2c2ccccc2N1` (stereo not given), the TGI in [1] is greater than 100 µM; in [2] it was greater than 100 µM; in test [3] it was greater than 100 µM; in test [4], 83.6 µM; in test [5], greater than 100 µM; in [6], greater than 100 µM. The TGI in [7] is greater than 100 µM; in test [8], 53.2 µM; in test [9] it was greater than 100 µM; in test [10] it was greater than 100 µM; in test [11] it was greater than 100 µM; in test [12], greater than 100 µM. Further, the TGI in [13], in test [14], in test [15], in test [17] and in test [18] was greater than 100 µM throughout.
For the compound `Cn1c(=O)c(C(=O)Nc2nc(C34CC5CC(CC(C5)C3)C4)cs2)c(O)c2ccccc21`, the TGI in test [1] is greater than 100 µM; in [2] it was greater than 100 µM; in test [3] it was greater than 100 µM; in test [4], 65.9 µM; in test [6] it was greater than 100 µM; in test [7] it was greater than 100 µM. The TGI in test [8], in test [9], in [11], in [12], in test [13] and in test [14] was greater than 100 µM in each case. In addition, the TGI in test [16] and in test [17] was greater than 100 µM in each case.
Take `C1CCC2(CC1)O[C@@H]1[C@@H](O2)[C@@H](O[C@H]2O[C@@H]3COC4(CCCCC4)O[C@H]3[C@@H]3OC4(CCCCC4)O[C@@H]23)O[C@@H]2COC3(CCCCC3)O[C@@H]12`: the TGI in test [1], in [2], in test [4], in test [5], in test [6] and in test [7] was greater than 100 µM in each case. Moreover, the TGI in [8], in test [9], in test [10], in [12], in [13] and in [14] was greater than 100 µM in each case. Also, the TGI in test [15], in test [16], in [17] and in test [18] was greater than 100 µM throughout.
For the compound `Nn1c(COc2cccc(OCc3n[nH]c(=S)n3N)c2)n[nH]c1=S`, the TGI in test [1], in [2], in test [3], in test [4], in [5] and in [6] was greater than 100 µM each time. The TGI is greater than 100 µM in [7]; greater than 100 µM in test [8]; greater than 100 µM in [9]; 21.7 µM in test [10]; greater than 100 µM in [11]; greater than 100 µM in test [12]. Further, the TGI in test [13], in test [14], in [15], in [17] and in test [18] was greater than 100 µM throughout.
Consider `O=CN1CCN(C(=O)c2ccc(Cl)cc2Cl)C1=S`, for which the TGI was greater than 100 µM in [1]; greater than 100 µM in [2]; greater than 100 µM in test [3]; 98.7 µM in test [4]; greater than 100 µM in test [5]; greater than 100 µM in test [6]. The TGI in test [7] was greater than 100 µM; in test [8] it was greater than 100 µM; in test [9] it was greater than 100 µM; in test [10] it was greater than 100 µM; in [11], greater than 100 µM; in test [12], 46.8 µM. The TGI in test [13], in test [14], in test [15], in [17] and in test [18] was greater than 100 µM each time.
Take `CCC(CON(C)c1ccccc1)(SC)SC`: the TGI in test [1], in test [2], in test [3], in [4], in test [5] and in test [6] was greater than 100 µM throughout. Also, the TGI in test [7], in test [8], in test [9], in [10], in [11] and in test [12] was greater than 100 µM throughout. Besides, the TGI in test [14], in test [15], in test [16], in test [17] and in [18] was greater than 100 µM each time.

(Values after PubChem BioAssay (NCI).)
